From US20090298872A1, “COMPOUNDS AND COMPOSITIONS AS MODULATORS OF STEROIDAL RECEPTORS AND CALCIUM CHANNEL ACTIVITIES” (IRM LLC, priority 2004, published 2009)
pIC50: −log10 of the molar value.

What was measured:
Format in all cases: cell-based
GR = biological target: T1, GR (Homo sapiens, UniProt P04150); assay: Functional assay of glucocorticoid receptor antagonism (Gal4-GR-LBD luciferase reporter, COS-7 cells); conditions: antagonism of dexamethasone (10 nM)-induced GR activity
T1 construct: expressed in transfected cells; host or cells: COS-7 cells (ATCC)
T1 sequence (P04150 541-778 isoform P04150-3): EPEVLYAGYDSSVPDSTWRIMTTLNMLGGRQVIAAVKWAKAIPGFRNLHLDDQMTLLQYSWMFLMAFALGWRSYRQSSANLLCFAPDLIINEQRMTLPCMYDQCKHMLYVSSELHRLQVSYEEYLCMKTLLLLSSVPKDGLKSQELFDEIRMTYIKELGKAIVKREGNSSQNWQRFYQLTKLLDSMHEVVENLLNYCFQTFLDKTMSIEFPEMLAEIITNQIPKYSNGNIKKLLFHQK
Protocol: The GR antagonist activity of the compounds is determined in a mammalian two hybrid reporter system. The ligand binding domain of GR (GR-LBD, sequence encoding amino acid 541-778) is fused to the DNA binding domain of the yeast Gal4 gene. The GR gene is cloned from a human lung cDNA library with PCR.
The assay is performed in 384 well plates: COS-7 cells (ATCC) are transfected with expression vectors for Gal-4-GR-LBD and a luciferase reporter vector containing Gal4 binding sequence (pG5-Luc). Cells are plated in 384 well plates immediately after transfection (approximately 8000 cells/well in 50 μl medium). The medium is supplemented with 3% charcoal-dextran treated fetal bovine serum (Hyclone). Twenty four hours after transfection, compounds prepared in DMSO are transferred to the cells. The cells are then stimulated with 10 nM final concentration of dexamethasone (Sigma) and incubated at 37° C. for another 24 hours before the luciferase activity is assayed with 20 μl of Bright-Glo (Promega) using a luminometer (CLIPR). The expression of luciferase is used as an indicator of dexamethasone-induced GR trans-activation. Each compound is tested in duplicate with a 12-concentration titration. IC50 values (defined as the concentration of test compound required to antagonize 50% of dexamethasone-induced GR activity) are determined from the dose-response curve.

MR = biological target: T2, MR (Homo sapiens, UniProt P08235); assay: Functional assay of mineralocorticoid receptor antagonism (mammalian two hybrid luciferase reporter, 293T cells); conditions: antagonism of aldosterone (0.4 nM)-induced MR activity
T2 construct: expressed in transfected cells; host or cells: 293T cells (ATCC)
T2 sequence (P08235 672-984): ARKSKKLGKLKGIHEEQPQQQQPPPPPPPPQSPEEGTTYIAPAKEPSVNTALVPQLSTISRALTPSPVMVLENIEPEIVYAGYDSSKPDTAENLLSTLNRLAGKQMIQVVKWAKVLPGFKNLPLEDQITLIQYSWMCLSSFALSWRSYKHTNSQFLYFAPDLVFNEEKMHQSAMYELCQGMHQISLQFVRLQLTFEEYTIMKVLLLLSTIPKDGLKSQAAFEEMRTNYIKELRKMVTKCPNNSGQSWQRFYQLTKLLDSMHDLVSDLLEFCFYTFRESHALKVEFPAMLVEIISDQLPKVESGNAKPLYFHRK
Protocol: The MR antagonist activity of the compounds is determined in a mammalian two hybrid reporter system. The N-terminus of MR (MR-NT, sequence coding amino acid 1-597) is fused to the activation domain of the VP16 gene. The ligand binding domain of MR (MR-LBD, sequence encoding amino acid 672-984) is fused to the DNA binding domain of the yeast Gal4 gene. The MR gene is cloned from a human kidney cDNA library with PCR.
The assay is performed in 384 well plates. Briefly, 293T cells (ATCC) are transfected with expression vectors for Gal4-MR-LBD and VP16-MR NT, and a luciferase reporter vector containing Gal4 binding sequence (pG5-Luc). Cells are plated in 384 well plates immediately after transfection (approximately 3×10^4 cells/well in 50 μl medium). The medium is supplemented with 3% charcoal-dextran treated fetal bovine serum (Hyclone). Twenty four hours after transfection, compounds prepared in DMSO are transferred to the cells. The cells are then stimulated with 0.4 nM final concentration of aldosterone (Acros) and incubated at 37° C. for another 24 hours before the luciferase activity is assayed with 20 μl of Bright-Glo (Promega) using a luminometer (CLIPR). The expression of luciferase is used as an indicator of aldosterone-induced MR trans-activation. Each compound is tested in duplicate with 12-concentration titration. IC50 values (defined as the concentration of test compound required to antagonize 50% of aldosterone-induced MR activity) are determined from the dose-response curve.

AR = biological target: T3, AR (Homo sapiens, UniProt P10275, Q868H); assay: Functional assay of androgen receptor antagonism (MMTV luciferase reporter, MDA-kb2 cells); conditions: antagonism of dihydrotestosterone (0.3 nM)-induced AR activity
T3 construct: endogenous in cells; host or cells: MDA-kb2 cells (ATCC)
T3 sequence (P10275 1-920 Q868H): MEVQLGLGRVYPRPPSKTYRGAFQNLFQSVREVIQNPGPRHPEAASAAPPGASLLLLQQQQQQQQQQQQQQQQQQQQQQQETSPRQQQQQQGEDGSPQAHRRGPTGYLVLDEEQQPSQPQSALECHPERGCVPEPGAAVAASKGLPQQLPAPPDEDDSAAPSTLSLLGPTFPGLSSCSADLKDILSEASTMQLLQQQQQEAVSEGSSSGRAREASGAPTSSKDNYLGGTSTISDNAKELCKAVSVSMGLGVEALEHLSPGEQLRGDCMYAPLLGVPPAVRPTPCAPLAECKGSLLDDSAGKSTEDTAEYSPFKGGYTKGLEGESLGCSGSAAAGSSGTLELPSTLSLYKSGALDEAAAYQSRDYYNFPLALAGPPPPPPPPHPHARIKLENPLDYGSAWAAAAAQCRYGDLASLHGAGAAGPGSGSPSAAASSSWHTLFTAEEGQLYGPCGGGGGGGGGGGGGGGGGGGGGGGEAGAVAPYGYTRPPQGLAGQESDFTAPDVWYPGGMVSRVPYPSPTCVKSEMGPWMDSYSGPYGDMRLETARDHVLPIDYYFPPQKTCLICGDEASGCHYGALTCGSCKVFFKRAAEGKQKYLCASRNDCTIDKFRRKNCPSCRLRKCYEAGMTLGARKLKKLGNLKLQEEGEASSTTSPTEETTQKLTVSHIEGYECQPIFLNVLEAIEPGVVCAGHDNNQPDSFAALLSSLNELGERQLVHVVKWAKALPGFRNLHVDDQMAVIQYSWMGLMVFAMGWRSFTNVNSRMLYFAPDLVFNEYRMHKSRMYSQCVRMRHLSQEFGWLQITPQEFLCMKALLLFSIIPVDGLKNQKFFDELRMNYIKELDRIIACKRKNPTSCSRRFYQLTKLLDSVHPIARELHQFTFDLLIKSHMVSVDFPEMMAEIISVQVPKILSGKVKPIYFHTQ
Protocol: The AR antagonist activity of the compounds is determined with the MDA-Kb2 cell line (ATCC), which stably expresses the MMTV luciferase reporter. The MMTV promoter is a mouse mammary tumor virus promoter that contains androgen receptor response elements. […] Upon stimulation with AR ligands, such as dihydrotestosterone, the MMTV luciferase reporter can be activated.
The assay is performed in 384 well plates. Briefly, MDA-kb2 cells are plated in 384 well plates at a density of approximately 2.4×10^4 cells/well in 50 μl medium. The medium is supplemented with 5% charcoal-dextran treated fetal bovine serum (Hyclone). Twenty four hours later, compounds prepared in DMSO are transferred to the cells. The cells are then stimulated with 0.3 nM final concentration of dihydrotestosterone (Sigma) and incubated at 37° C. for another 24 hours before the luciferase activity is assayed with 20 μl of Bright-Glo (Promega) using a luminometer (CLIPR). The expression of luciferase is used as an indicator of dihydrotestosterone-induced AR trans-activation. Each compound is tested in duplicate with a 12-concentration titration. IC50 values (defined as the concentration of test compound required to antagonize 50% of dihydrotestosterone-induced AR activity) are determined from the dose-response curve.

PR = biological target: T4, PR (Homo sapiens, UniProt P06401); assay: Functional assay of progesterone receptor antagonism (progesterone-induced alkaline phosphatase, T-47D cells); conditions: antagonism of progesterone (3 nM)-induced PR activity
T4 construct: endogenous in cells; host or cells: T-47D cells (ATCC)
T4 sequence (P06401 1-933): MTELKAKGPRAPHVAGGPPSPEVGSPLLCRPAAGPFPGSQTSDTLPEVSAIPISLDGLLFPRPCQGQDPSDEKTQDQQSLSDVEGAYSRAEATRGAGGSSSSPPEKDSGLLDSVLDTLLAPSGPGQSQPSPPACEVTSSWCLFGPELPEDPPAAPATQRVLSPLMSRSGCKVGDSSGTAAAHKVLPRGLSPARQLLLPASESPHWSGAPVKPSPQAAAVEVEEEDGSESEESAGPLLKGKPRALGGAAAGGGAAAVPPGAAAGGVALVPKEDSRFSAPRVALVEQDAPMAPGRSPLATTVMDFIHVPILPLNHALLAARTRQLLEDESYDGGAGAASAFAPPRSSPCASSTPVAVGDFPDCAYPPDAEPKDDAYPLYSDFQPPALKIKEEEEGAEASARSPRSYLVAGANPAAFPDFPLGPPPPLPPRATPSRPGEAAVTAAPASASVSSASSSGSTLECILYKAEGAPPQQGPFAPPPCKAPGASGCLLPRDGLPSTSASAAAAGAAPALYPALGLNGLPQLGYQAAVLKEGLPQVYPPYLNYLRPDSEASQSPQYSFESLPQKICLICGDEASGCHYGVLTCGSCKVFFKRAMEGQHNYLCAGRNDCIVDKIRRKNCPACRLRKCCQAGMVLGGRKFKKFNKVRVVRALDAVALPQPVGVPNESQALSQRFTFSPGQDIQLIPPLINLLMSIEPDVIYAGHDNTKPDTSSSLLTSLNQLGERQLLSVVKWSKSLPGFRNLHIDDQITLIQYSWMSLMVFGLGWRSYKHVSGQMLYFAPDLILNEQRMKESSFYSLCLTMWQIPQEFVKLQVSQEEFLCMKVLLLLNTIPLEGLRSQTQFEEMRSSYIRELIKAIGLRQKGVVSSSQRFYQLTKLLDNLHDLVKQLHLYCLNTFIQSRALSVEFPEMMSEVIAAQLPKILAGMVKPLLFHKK
Protocol: The PR antagonist activity of the compounds is determined by progesterone-induced alkaline phosphatase activity in the T-47D cell line (ATCC). In the T-47D breast cancer cells, progesterone specifically induces de novo synthesis of a membrane-associated alkaline phosphatase enzyme in a time and dose-dependent manner (Di Lorenzo et al., Cancer Research, 51: 4470-4475 (1991)). The alkaline phosphatase enzymatic activity can be measured with a chemiluminescent substrate, such as CSPD® (Applied Biosystems).
The assay is performed in 384 well plates. Briefly, T-47D cells are plated in 384 well plates at a density of approximately 2.5×10^4 cells/well in 50 μl medium supplemented with 10% fetal bovine serum. Twenty four hours later, the medium is aspirated. New medium that is free of phenol red and serum is added to the cells. Compounds prepared in DMSO are transferred to the cells. The cells are then stimulated with 3 nM final concentration of progesterone (Sigma) and incubated at 37° C. for another 24 hours before the alkaline phosphatase is assayed with 25 μl of CSPD® (Applied Biosystems) using a luminometer (CLIPR). The expression of alkaline phosphatase is used as an indicator of progesterone-induced PR trans-activation. Each compound is tested in duplicate with a 12-concentration titration. […]

| pIC50 (GR) | pIC50 (MR) | pIC50 (AR) | pIC50 (PR) | SMILES |
| --- | --- | --- | --- | --- |
| 5.51 | 8.05 | 4.40 | 5.64 | COCC1=C(C(=O)OC(C)C)C(c2ccc(F)cc2Br)C(C#N)=C(C)N1 (stereo not shown) [Compound 96, 5-isopropyl-2-methyl-3-cyano-4-(2-bromo-4-fluorophenyl)-6-(methoxymethyl)-1,4-dihydro-pyridine-5-carboxylate] |
| – | 8.10 | 5.59 | – | COc1ccccc1NC(=O)C1=C(C)NC(SC)=C(C#N)C1c1ccccc1Br (stereo not shown) [Compound 14, 2-methylthio-3-cyano-4-(2-bromophenyl)-5-(2-methoxyphenyl)carbamoyl-6-methyl-1,4-dihydro-pyridine] |
| 5.16 | 7.39 | 5.54 | 6.32 | COC(=O)C1=C(C)NC(C)=C(C#N)C1c1ccc(F)cc1Cl (stereo not shown) [Example 207, 5-methyl-2,6-dimethyl-3-cyano-4-(2-chloro-4-fluorophenyl)-1,4-dihydro-pyridine-5-carboxylate] |
